{"source": "patent US5340589A", "about": "“Low solubility drug-coated bead compositions” (Sterling Winthrop Inc., priority 1993, dated 1994)", "key": {"[1]": {"conditions": "in vivo, po; cited from earlier work"}, "[2]": {"conditions": "dog, in vivo, po", "method": "Blood samples were taken at 0.25(tablet only), 0.5, 1, 2, 4, 6, 8, 10, 12 and 24 hours postmedication. The plasma concentration of (5α,17α)-1'-(methylsulfonyl)-1'-H-pregn-20-yno[3,2-c]pyrazol-17-ol was measured from each sample. The data were analyzed to determine the mean maximum concentration of (5α,17α)-1'-(methylsulfonyl)-1'-H-pregn-20-yno[3,2-c]pyrazol-17-ol reached (mean Cmax) and the mean area under the (5α,17α)-1'-(methylsulfonyl)-1'H-pregn-20-yno[3,2-c]pyrazol-17-ol concentration-time curve for the twenty-four hour period (mean AUC0-24)."}}, "data": [{"molecule": "C#C[C@]1(O)CC[C@H]2[C@@H]3CCC4=Cc5oncc5C[C@]4(C)[C@H]3CC[C@@]21C", "note": "[Compound A, 17a-pregna-2,4-diene-20-yno[2,3-d]isoxazol-17-ol]", "values": [{"measurement": "human bioavailability compared with conventional starch-lactose-talc-magnesium stearate dry powder capsule formulations", "setting": "[1]", "result": "Improved human bioavailability"}]}, {"molecule": "(5α,17α)-1'-(methylsulfonyl)-1'H-pregn-20-yno[3,2-c]pyrazol-17-ol [Comparative Example]", "values": [{"measurement": "Mean Cmax", "setting": "[2]", "result": "0.23 (0.11) μg./ml."}, {"measurement": "Mean AUC0-24", "setting": "[2]; 24 h", "result": "1.70 (1.64) μg.-hr./ml."}]}]}
